Results: patent US10214512B2, “Factor XIA inhibitors” (MERCK SHARP & DOHME CORP., priority 2015, dated 2019)
Like-named read-outs stand apart in the source and are kept apart here.

Assays:
[1] = biological target: purified human Factor XIa (Homo sapiens (Human), UniProt P03951); test: Factor XIa Assay; assay type: biochemical; settings: purified human Factor XIa 40 pM; substrate Z-Gly-Pro-Arg-AFC 100 μM; 50 mM HEPES pH 7.4; read-out: Human FXIa Ki
How it was run: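 Ki obtained from the dependence of uninhibited/inhibited initial-velocity ratio on inhibitor concentration, under a competitive-inhibition model. Reactions used 100 μM Z-Gly-Pro-Arg-AFC and 40 pM final human Factor XIa in pH 7.4 HEPES buffer with NaCl, CaCl2 and PEG 8000; run at rt or 37° C following pre-equilibration.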

[2] = biological target: purified Human plasma Kallikrein (Homo sapiens (Human), UniProt P03952); test: Kallikrein Assay; assay type: biochemical
How it was run: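 Purified human plasma kallikrein (0.5 nM) with fluorogenic Ac-K-P-R-AFC ([…]) in 50 mM HEPES pH 7.4, 150 mM NaCl, 5 mM CaCl2, 0.1% PEG 8000, at rt or 37 °C. Substrate hydrolysis rate read with and without inhibitor; IC50 from four-parameter logistic fit, converted to Ki by Cheng–Prusoff.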

[3] = purified Human plasma Kallikrein 0.5 nM, substrate Acetyl-K-P-R-AFC, 50 mM HEPES pH 7.4, Ki from IC50 by Cheng Prusoff

Sequence of purified Human plasma Kallikrein (P03952 391-638): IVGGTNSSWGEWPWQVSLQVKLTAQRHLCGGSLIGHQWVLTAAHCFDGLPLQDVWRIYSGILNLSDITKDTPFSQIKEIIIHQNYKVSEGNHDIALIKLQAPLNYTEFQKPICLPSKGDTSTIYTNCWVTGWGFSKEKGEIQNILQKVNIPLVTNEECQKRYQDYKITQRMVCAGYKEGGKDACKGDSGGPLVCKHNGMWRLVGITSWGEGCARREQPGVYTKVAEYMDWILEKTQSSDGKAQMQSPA
Sequence of purified Human plasma Kallikrein (P03952 20-390 partner): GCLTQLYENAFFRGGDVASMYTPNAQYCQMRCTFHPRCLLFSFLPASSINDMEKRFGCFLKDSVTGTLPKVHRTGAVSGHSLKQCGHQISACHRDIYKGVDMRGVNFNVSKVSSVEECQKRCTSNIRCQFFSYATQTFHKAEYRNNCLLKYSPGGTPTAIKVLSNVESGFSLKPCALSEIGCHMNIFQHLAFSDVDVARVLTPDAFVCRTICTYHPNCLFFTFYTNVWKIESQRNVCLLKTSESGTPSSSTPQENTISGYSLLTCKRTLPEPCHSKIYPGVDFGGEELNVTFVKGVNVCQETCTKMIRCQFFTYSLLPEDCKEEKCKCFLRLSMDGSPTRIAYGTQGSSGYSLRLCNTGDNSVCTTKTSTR
Sequence of purified human Factor XIa (P03951 388-625): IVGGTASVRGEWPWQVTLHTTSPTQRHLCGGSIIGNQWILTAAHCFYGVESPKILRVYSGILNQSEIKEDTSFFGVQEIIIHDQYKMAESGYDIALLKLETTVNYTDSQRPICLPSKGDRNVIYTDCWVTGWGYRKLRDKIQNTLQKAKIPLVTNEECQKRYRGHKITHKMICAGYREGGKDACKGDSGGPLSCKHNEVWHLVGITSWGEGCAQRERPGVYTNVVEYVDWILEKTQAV
Sequence of purified human Factor XIa (P03951 19-387 partner): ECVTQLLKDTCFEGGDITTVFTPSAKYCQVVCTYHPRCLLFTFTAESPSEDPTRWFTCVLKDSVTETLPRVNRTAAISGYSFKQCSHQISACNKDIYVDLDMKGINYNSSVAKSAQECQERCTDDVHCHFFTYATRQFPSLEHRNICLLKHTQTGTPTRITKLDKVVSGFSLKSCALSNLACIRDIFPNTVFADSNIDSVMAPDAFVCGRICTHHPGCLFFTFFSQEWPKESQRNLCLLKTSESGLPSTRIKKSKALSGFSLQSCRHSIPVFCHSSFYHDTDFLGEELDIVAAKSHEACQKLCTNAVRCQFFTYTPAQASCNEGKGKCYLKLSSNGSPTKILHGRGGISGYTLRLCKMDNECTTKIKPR

| SMILES | Ki [1] [nM] | Ki [2, 3] [nM] | Ki [2] [nM] |
| --- | --- | --- | --- |
| COC(=O)Nc1ccc2c(c1)NC(=O)[C@@H](C)CCC[C@@H](c1ccc(-c3c(F)cccc3F)c[n+]1[O-])c1nc-2c(C)[nH]1 (single isomer, unassigned) [Example 143-c] | 1.4 | 5.92 |  |
| CCc1[nH]c2nc1-c1ccc(NC(=O)OC)cc1NC(=O)C(C)CCC[C@@H]2c1ccc(-c2c(F)cccc2F)c[n+]1[O-] (single isomer, unassigned) [Example 144] | 0.46 | 1.35 |  |
| COC(=O)Nc1ccc2c(c1)NC(=O)C(C)(C)CCC[C@H](c1ccc(-c3c(F)cccc3OC(F)F)c[n+]1[O-])c1nc-2c(C)[nH]1 (single isomer, unassigned) [Example 147] | 0.22 | 3.08 |  |
| COC(=O)Nc1ccc2c(c1)NC(=O)C1(CCC[C@H](c3ccc(-c4c(F)cccc4OC(F)F)c[n+]3[O-])c3nc-2c(C)[nH]3)CC1 (single isomer, unassigned) [Example 148] | 2.5 | 37.3 |  |
| C[C@@H]1CCC[C@H](c2ccc(-c3cc(Cl)ccc3-n3cc(Cl)nn3)c[n+]2[O-])c2cccc(c2)-c2c(cnn2C(F)F)NC1=O (single isomer, unassigned) [Example 166-a] | 0.14 | 1.39 |  |
| O=C1CCCC[C@H](c2ccc(-c3cc(Cl)ccc3-n3cc(C(F)(F)F)cn3)c[n+]2[O-])c2cccc(c2)-c2c(cnn2C(F)F)N1 (single isomer, unassigned) [Example 167] | 1.37 | 376 |  |
| N#Cc1cnn(-c2ccc(Cl)cc2-c2ccc([C@H]3CCCCC(=O)Nc4cnn(C(F)F)c4-c4cccc3c4)[n+]([O-])c2)c1 (single isomer, unassigned) [Example 169] | 3.8 | 94.2 |  |
| C[C@@H]1CCC[C@H](c2ccc(-c3ccccc3-n3cc(Cl)nn3)c[n+]2[O-])c2cccc(c2)-c2c(cnn2C(F)F)NC1=O (single isomer, unassigned) [Example 172-a] | 1.37 | 376 |  |
| O=C1CCCC[C@H](c2ccc(-c3cc(Cl)ccc3-n3cnnn3)cn2)c2cccc(c2)-c2cc(F)ccc2N1 [Example 1-a, (S)-9-(5-(5-Chloro-2-(1H-tetrazol-1-yl)phenyl)pyridin-2-yl)-2^5-fluoro-3-aza-1(1,3),2(1,2)-dibenzenacyclononaphan-4-one] | 22.3 | 205 |  |
| O=C1CCCC[C@H](c2ccc(-c3cc(Cl)ccc3-n3cnnn3)c[n+]2[O-])c2cccc(c2)-c2cc(F)ccc2N1 [Example 2-a, (S) 5-(5-chloro-2-(1H-tetrazol-1-yl)phenyl)-2-(2^5-fluoro-4-oxo-3-aza-1(1,3),2(1,2)-dibenzenacyclononaphane-9-yl)pyridine 1-oxide] | 0.09 | 2.7 |  |
| C[C@@H]1CCC[C@@H](c2ccc(-c3cc(Cl)ccc3-n3cnnn3)c[n+]2[O-])c2cccc(c2)-c2cc(F)ccc2NC1=O [Example 3-a, 5-(5-chloro-2-(1H-tetrazol-1-yl)phenyl)-2-((5R,9R)-2^5-fluoro-5-methyl-4-oxo-3-aza-1(1,3),2(1,2)-dibenzenacyclononaphane-9-yl)pyridine 1-oxide] | 27.7 | 79.8 |  |
| C[C@H]1CCC[C@H](c2ccc(-c3cc(Cl)ccc3-n3cnnn3)c[n+]2[O-])c2cccc(c2)-c2cc(F)ccc2NC1=O [Example 3-b, 5-(5-chloro-2-(1H-tetrazol-1-yl)phenyl)-2-((5S,9S)-2^5-fluoro-5-methyl-4-oxo-3-aza-1(1,3),2(1,2)-dibenzenacyclononaphane-9-yl)pyridine 1-oxide] | 0.57 | 10.6 |  |
| C[C@H]1CCC[C@@H](c2ccc(-c3cc(Cl)ccc3-n3cnnn3)c[n+]2[O-])c2cccc(c2)-c2cc(F)ccc2NC1=O [Example 3-c, 5-(5-Chloro-2-(1H-tetrazol-1-yl)phenyl)-2-((5S,9R)-2^5-fluoro-5-methyl-4-oxo-3-aza-1(1,3),2(1,2)-dibenzenacyclononaphane-9-yl)pyridine 1-oxide] | 26.3 | 660 |  |
| C[C@@H]1CCC[C@H](c2ccc(-c3cc(Cl)ccc3-n3cnnn3)c[n+]2[O-])c2cccc(c2)-c2cc(F)ccc2NC1=O [Example 3-d, 5-(5-Chloro-2-(1H-tetrazol-1-yl)phenyl)-2-((5R,9S)-2^5-fluoro-5-methyl-4-oxo-3-aza-1(1,3),2(1,2)-dibenzenacyclononaphane-9-yl)pyridine 1-oxide] | 0.18 | 0.59 |  |
| O=C1CCCC[C@H](c2ccc(-c3cc(Cl)ccc3-n3cnnn3)c[n+]2[O-])c2cccc(c2)-c2cc(C(=O)O)ccc2N1 [Example 4-a, 2-(2^5-Carboxy-4-oxo-3-aza-1(1,3),2(1,2)-dibenzenacyclononaphane-9-yl)-5-(5-chloro-2-(1H-tetrazol-1-yl)phenyl)pyridine 1-oxide] | 0.31 |  | 3.41 |
| O=C1CCCC[C@H](c2ccc(-c3cc(Cl)ccc3-n3cnnn3)c[n+]2[O-])c2cccc(c2)-c2cc(C(=O)O)ccc2N1 [Example 4-b, 2-(2^5-Carboxy-4-oxo-3-aza-1(1,3),2(1,2)-dibenzenacyclononaphane-9-yl)-5-(5-chloro-2-(1H-tetrazol-1-yl)phenyl)pyridine 1-oxide] | 8.4 |  | 332 |
| CC1CCCC(c2ccc(-c3c(-n4cnnn4)ccc(Cl)c3F)c[n+]2[O-])c2cccc(c2)-c2cc(F)ccc2NC1=O (stereo not drawn) [Example 8, 5,5-(3-chloro-2-fluoro-6-(1h-tetrazol-1-yl)phenyl)-2-(2^5-fluoro-5-methyl-4-oxo-3-aza-1(1,3),2(1,2)-dibenzenacyclononaphane-9-yl)pyridine 1-oxide] | 0.41 | 1.94 |  |
| COC(=O)Nc1ccc2c(c1)NC(=O)CCCC[C@H](c1ccc(-c3cc(Cl)ccc3-n3cc(C(F)(F)F)nn3)c[n+]1[O-])c1cccc-2c1 [Example 39, (S)-5-(5-chloro-2-(4-(trifluoromethyl)-1H-1,2,3-triazol-1-yl)phenyl)-2-(2^4-((methoxycarbonyl)amino)-4-oxo-3-aza-1(1,3),2(1,2)-dibenzenacyclononaphane-9-yl)pyridine 1-oxide] | 0.26 | 0.81 |  |
| CCOC(=O)Nc1ccc2c(c1)NC(=O)CCCC[C@H](c1ccc(-c3c(F)ccc(Cl)c3F)c[n+]1[O-])c1cccc-2c1 [Example 44, (s)-5-(3-chloro-2,6-difluorophenyl)-2-(2^4-((ethoxycarbonyl)amino)-4-oxo-3-aza-1(1,3),2(1,2)-dinenzenacyclononaphane-9-yl)pyridine 1-oxide] | 1.23 | 2.7 |  |
| CC(C)(C)OCCOC(=O)Nc1ccc2c(c1)NC(=O)CCCC[C@H](c1ccc(-c3c(F)ccc(Cl)c3F)c[n+]1[O-])c1cccc-2c1 [Example 45, (S)-2-(2^4-(((2-(tert-butoxy)ethoxy)carbonyl)amino)-4-oxo-3-aza-1(1,3),2(1,2)-dinenzenacyclononaphane-9-yl)-5-(3-chloro-2,6-difluorophenyl)pyridine 1-oxide] | 0.24 | 0.44 |  |
| O=C1CCCC[C@H](c2ccc(-c3c(F)ccc(Cl)c3F)c[n+]2[O-])c2cccc(c2)-c2ccc(Nc3cccnc3)cc2N1 [Example 47, 5-(3-chloro-2,6-difluorophenyl)-2-(4-oxo-2^4-(pyridin-3-ylamino)-3-aza-1(1,3),2(1,2)-dinenzenacyclononaphane-9-yl)pyridine 1-oxide] | 1.89 | 5.01 |  |
